Where two headings read alike, the source gives them in different places.
System: PrPsc signal in buffy coat (scrapie blood leukocytes)
Format: cell-based, sheep
Details: for PrPsc signal from the buffy coat (OD): additive 5 mM final in whole blood at collection, stored 24 h at 4° C. or room temperature; for preservation of the PrPsc harbored in the buffy coat of blood: scrapie sheep of both ARQ/ARQ and VRQ/VRQ genotypes, additive in blood, stored for at least 24 h
[1] = pre-clinical scrapie sheep #1 (ARQ/ARQ), FIG. 1
[2] = pre-clinical scrapie sheep #2 (ARQ/ARQ), FIG. 2

Molecule | PrPsc signal from the buffy coat (OD) [1] | PrPsc signal from the buffy coat (OD) [2] | preservation of the PrPsc harbored in the buffy coat of blood | detection signal in buffy coat fractions of blood samples (scrapie animals, samples processed 24 hours post-collection) | percentage loss of PrPsc signal relative to sample processed immediately
O=C(O)CN(CCOCCOCCN(CC(=O)O)CC(=O)O)CC(=O)O [EGTA, ethylene glycol tetraacetic acid] | preserve the PrPsc signal | preserve the PrPsc signal | allow for the preservation of the PrPsc |  | 
N[C@@H](CCC(=O)N[C@@H](CS)C(=O)NCC(=O)O)C(=O)O [L-glutathione (reduced)] | preserve the PrPsc signal | preserve the PrPsc signal | allow for the preservation of the PrPsc | can preserve the detection signal | 
oxidized L-glutathione |  |  |  |  | lack of effect
